Measured values reported in ChEMBL document CHEMBL6134799, “Auto-RapTAC: A Versatile and Sustainable Platform for the Automated Rapid Synthesis and Evaluation of PROTAC” (J Med Chem, 2025).
Active and inactive are the calls of the source. No cut-off for these calls is given here.

Tests used:
Assay type in all cases: cell-based
[1] = target: T1, von Hippel-Lindau disease tumor suppressor/Cyclin-dependent kinase 12 (Homo sapiens, UniProt P40337+Q9NYV4); test: Auto-RapTAC activity at VHL/CDK12 in human HeLa cells assessed as CDK12 degradation at 500 to 1000 nM incubated for 24 hrs by cytoblot analysis relative to control; details: dose 500-1000 nM
Target sequence in this assay (P40337 whole entry, looked up): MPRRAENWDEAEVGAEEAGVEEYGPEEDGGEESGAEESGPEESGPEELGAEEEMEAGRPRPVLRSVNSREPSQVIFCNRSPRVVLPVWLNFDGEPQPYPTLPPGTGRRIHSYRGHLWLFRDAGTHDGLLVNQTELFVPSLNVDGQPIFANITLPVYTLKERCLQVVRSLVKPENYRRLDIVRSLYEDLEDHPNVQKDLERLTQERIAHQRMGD
Target sequence in this assay (Q9NYV4 whole entry, looked up): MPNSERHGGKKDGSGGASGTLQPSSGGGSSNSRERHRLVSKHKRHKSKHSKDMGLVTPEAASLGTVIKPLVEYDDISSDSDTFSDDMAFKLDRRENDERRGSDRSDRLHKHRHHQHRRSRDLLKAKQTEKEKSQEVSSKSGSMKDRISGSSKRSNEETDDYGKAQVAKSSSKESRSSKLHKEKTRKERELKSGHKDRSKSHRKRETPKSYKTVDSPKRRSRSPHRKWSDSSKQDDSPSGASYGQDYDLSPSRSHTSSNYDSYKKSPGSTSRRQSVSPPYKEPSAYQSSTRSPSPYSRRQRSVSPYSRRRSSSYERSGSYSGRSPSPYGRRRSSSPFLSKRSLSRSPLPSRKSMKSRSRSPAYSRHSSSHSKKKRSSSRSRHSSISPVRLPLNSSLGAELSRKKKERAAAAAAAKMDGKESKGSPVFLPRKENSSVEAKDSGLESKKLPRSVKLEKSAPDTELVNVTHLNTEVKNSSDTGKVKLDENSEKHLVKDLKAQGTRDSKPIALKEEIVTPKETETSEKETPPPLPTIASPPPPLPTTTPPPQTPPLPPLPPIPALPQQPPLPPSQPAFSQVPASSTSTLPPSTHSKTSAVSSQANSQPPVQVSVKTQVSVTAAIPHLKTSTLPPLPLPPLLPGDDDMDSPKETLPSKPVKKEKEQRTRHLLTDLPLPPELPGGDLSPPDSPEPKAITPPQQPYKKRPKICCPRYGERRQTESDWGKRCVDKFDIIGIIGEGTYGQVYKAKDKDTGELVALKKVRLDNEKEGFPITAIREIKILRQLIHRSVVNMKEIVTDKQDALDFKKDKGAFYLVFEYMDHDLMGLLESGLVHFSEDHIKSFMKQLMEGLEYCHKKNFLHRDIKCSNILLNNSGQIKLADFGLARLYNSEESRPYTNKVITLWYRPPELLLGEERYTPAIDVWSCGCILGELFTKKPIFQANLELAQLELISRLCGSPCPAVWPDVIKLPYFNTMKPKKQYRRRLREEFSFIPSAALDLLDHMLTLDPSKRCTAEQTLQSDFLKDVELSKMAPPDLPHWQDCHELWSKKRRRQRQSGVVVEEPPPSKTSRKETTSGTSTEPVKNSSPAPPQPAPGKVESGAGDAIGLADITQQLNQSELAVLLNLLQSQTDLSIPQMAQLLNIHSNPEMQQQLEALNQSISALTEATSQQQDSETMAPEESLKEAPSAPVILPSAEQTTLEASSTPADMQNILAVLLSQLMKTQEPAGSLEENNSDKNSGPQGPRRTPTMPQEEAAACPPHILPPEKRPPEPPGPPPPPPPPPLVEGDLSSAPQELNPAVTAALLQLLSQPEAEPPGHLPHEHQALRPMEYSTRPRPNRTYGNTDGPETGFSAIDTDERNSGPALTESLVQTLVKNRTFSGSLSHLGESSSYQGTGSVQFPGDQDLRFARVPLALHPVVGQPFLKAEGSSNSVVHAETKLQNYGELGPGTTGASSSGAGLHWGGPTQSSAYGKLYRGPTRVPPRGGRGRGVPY

[2] = target: T1, von Hippel-Lindau disease tumor suppressor/Cyclin-dependent kinase 12; test: Auto-RapTAC activity at VHL/CDK12 in human HeLa cells assessed as CDK12 degradation incubated for 24 hrs by cytoblot analysis
HeLa [3] = test: Auto-RapTAC activity at MDM2/CDK12 in human HeLa cells assessed as CDK12 degradation at 500 to 1000 nM incubated for 24 hrs by cytoblot analysis relative to control; details: dose 500-1000 nM
[4] = target: Protein cereblon/Cyclin-dependent kinase 2 (Homo sapiens, UniProt P24941+Q96SW2); test: Auto-RapTAC activity at CRBN/CDK2 in human NCI-H1299 cells assessed as CDK2 degradation incubated for 24 hrs by Western blot analysis
[5] = target: T2, Protein cereblon/B-cell lymphoma 6 protein (Homo sapiens, UniProt Q96SW2+P41182); test: Auto-RapTAC activity at CRBN/BCL6 in HEK293T cells expressing GFP-BCL6 (unknown origin) assessed as BCL6 degradation at 500 to 1000 nM incubated for 24 hrs by fluorescence based analysis; details: dose 500-1000 nM
[6] = target: von Hippel-Lindau disease tumor suppressor/B-cell lymphoma 6 protein (Homo sapiens, UniProt P40337+P41182); test: Auto-RapTAC activity at VHL/BCL6 in HEK293T cells expressing GFP-BCL6 (unknown origin) assessed as BCL6 degradation incubated for 24 hrs by fluorescence based analysis
HEK293T = test: Auto-RapTAC activity at MDM2/BCL6 in HEK293T cells expressing GFP-BCL6 (unknown origin) assessed as BCL6 degradation at 500 to 1000 nM incubated for 24 hrs by fluorescence based analysis; details: Homo sapiens, dose 500-1000 nM
[7] = (§1) Auto-RapTAC activity at MDM2/CDK12 in human HeLa cells assessed as CDK12 degradation incubated for 24 hrs by cytoblot analysis
HeLa [8] = test: as §1; details: dose 500-1000 nM
[9] = target: T2, Protein cereblon/B-cell lymphoma 6 protein; test: Auto-RapTAC activity at CRBN/BCL6 in HEK293T cells expressing GFP-BCL6 (unknown origin) assessed as BCL6 degradation incubated for 24 hrs by fluorescence based analysis

T2 sequence (Q96SW2 whole entry, looked up, other chains not shown): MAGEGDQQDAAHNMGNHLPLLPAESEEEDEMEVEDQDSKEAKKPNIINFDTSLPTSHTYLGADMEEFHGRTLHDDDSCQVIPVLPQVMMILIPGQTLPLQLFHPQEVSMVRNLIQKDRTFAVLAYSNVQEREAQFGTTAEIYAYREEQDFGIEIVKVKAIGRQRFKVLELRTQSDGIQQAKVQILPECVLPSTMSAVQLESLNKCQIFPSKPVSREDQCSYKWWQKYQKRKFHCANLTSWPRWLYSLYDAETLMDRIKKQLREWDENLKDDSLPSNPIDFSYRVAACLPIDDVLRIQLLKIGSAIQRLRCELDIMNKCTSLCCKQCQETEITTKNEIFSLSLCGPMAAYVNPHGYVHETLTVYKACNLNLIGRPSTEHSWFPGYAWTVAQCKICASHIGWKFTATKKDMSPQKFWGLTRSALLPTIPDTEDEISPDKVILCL
von Hippel-Lindau disease tumor suppressor/B-cell lymphoma 6 protein, sequence (P40337 whole entry, looked up, other chains not shown): as the sequence (P40337 whole entry, looked up) above

For `Cc1ncsc1-c1ccc([C@H](C)NC(=O)[C@@H]2C[C@@H](O)CN2C(=O)[C@H](NC(=O)COCCCCn2cc(CCCOc3cc4[nH]c(CNc5nc(N6CCOCC6)nc6c5ncn6C(C)C)nc4cc3F)nn2)C(C)(C)C)cc1`, the Activity [1] was over 60%, the DC50 [2] was 2.7 nM and the Activity ([2]; dose 500-1000 nM) was “Dose-dependent-effect; Hook Effect Was Not Observed”.
In the case of `CCOC(=O)c1[nH]c2cc(Cl)ccc2c1C(C(=O)NC(C)(C)C)N(Cc1cc(F)c(F)c(F)c1)C(=O)CCCCCn1cc(CCCOc2cc3[nH]c(CNc4nc(N5CCOCC5)nc5c4ncn5C(C)C)nc3cc2F)nn1` (centres undefined), the Activity (HeLa [3]) is reported as over 60%.
For `Cc1ncsc1-c1ccc([C@H](C)NC(=O)[C@@H]2C[C@@H](O)CN2C(=O)[C@H](NC(=O)CCCCCCCCCCn2cc(CCC(=O)N3CCC(NC(=O)c4n[nH]cc4NC(=O)c4c(F)cccc4Cl)CC3)nn2)C(C)(C)C)cc1`, the DC50 [4] was 362 nM.
With `Cc1ncsc1-c1ccc([C@H](C)NC(=O)[C@@H]2C[C@@H](O)CN2C(=O)[C@H](NC(=O)CCCCCCCCCCn2cc(CCC(=O)N3CCC(NC(=O)c4n[nH]cc4NC(=O)c4c(Cl)cccc4Cl)CC3)nn2)C(C)(C)C)cc1` the DC50 [4] was 454 nM.
For `CNC(=O)COc1cc2cc(Nc3nc(N4CCC(c5cn(CCCCCCCCCCOc6ccc7c(c6)C(=O)N(C6CCC(=O)NC6=O)C7=O)nn5)CC4)ncc3Cl)ccc2n(C)c1=O` (centres undefined), the Activity [5] was “Active”.
`Cc1ncsc1-c1ccc([C@H](C)NC(=O)[C@@H]2C[C@@H](O)CN2C(=O)[C@H](NC(=O)CCCCCCCCCCn2cc(CCCOc3cc4[nH]c(CNc5nc(N6CCOCC6)nc6c5ncn6C(C)C)nc4cc3F)nn2)C(C)(C)C)cc1` showed an Activity [1] of over 60%.
With `CNC(=O)COc1cc2cc(Nc3nc(N4CCC(c5cn(CCCCCCCCOc6ccc7c(c6)C(=O)N(C6CCC(=O)NC6=O)C7=O)nn5)CC4)ncc3Cl)ccc2n(C)c1=O` (centres undefined) the Activity [5] was “Active”.
For `CNC(=O)COc1cc2cc(Nc3nc(N4CCC(c5cn(CCCCCCCCCCC(=O)N[C@@H](C(=O)N6C[C@H](O)C[C@H]6C(=O)N[C@@H](C)c6ccc(-c7scnc7C)cc6)C(C)(C)C)nn5)CC4)ncc3Cl)ccc2n(C)c1=O`, the DC50 [6] was 3.1 nM, the Activity ([6]; dose 500-1000 nM) was “Dose-dependent-effect; Hook Effect Was Not Observed” and the Activity (HEK293T) was “Active”.
In the case of `CCOC(=O)c1[nH]c2cc(Cl)ccc2c1C(C(=O)NC(C)(C)C)N(Cc1cc(F)c(F)c(F)c1)C(=O)CCCCCCn1cc(CCCOc2cc3[nH]c(CNc4nc(N5CCOCC5)nc5c4ncn5C(C)C)nc3cc2F)nn1` (centres undefined), the DC50 [7] is reported as 2.4 nM, the Activity (HeLa [8]) is reported as “Dose-dependent-effect; Hook Effect Was Not Observed” and the Activity (HeLa [3]) is reported as over 60%.
For `CNC(=O)COc1cc2cc(Nc3nc(N4CCC(c5cn(CCCCCCCOc6ccc7c(c6)C(=O)N(C6CCC(=O)NC6=O)C7=O)nn5)CC4)ncc3Cl)ccc2n(C)c1=O` (centres undefined), the Activity [5] was “Active”, the DC50 [9] was 7 nM and the Activity ([9]; dose 500-1000 nM) was “Dose-dependent-effect; Hook Effect Was Not Observed”.
In the case of `CNC(=O)COc1cc2cc(Nc3nc(N4CCC(c5cn(CCCCCCCCCOc6ccc7c(c6)C(=O)N(C6CCC(=O)NC6=O)C7=O)nn5)CC4)ncc3Cl)ccc2n(C)c1=O` (centres undefined), the Activity [5] is reported as “Active”.
